According to ChEMBL document CHEMBL1139308, “Identification and synthesis of 2,7-diamino-thiazolo[5,4-d]pyrimidine derivatives as TRPV1 antagonists” (Bioorg Med Chem Lett, 2009):
Converted amounts (≈) assume the structure as drawn. Values belong to the molecule of their own block, whether it stands above or below them. The source made the active and inactive calls. The rule behind the calls is not given here.

Columns and labels:
[1] = molecular target: T1, Transient receptor potential cation channel subfamily V member 1 (Homo sapiens, UniProt Q8NER1); test: Antagonist activity at human TRPV1 expressed in HEK293 cells assessed as inhibition of capsaicin-induced calcium flux; assay type: functional, cell-based
[2] = molecular target: T2, Transient receptor potential cation channel subfamily V member 1 (Rattus norvegicus, UniProt O35433); test: Antagonist activity at rat TRPV1 expressed in HEK293 cells assessed as inhibition of capsaicin-induced calcium flux; assay type: functional, cell-based
[3] = Clearance in fasted Sprague-Dawley rat at 0.5 mg/kg, iv and 2 mg/kg, po; assay type: ADME, organism-based; conditions: in vivo
[4] = Cmax in fasted Sprague-Dawley rat at 2 mg/kg, po; assay type: ADME, organism-based; set-up: dose 2 mg/kg, route oral; conditions: in vivo
[5] = Half life in fasted Sprague-Dawley rat at 0.5 mg/kg, iv and 2 mg/kg, po; assay type: ADME, organism-based; conditions: in vivo
[6] = Tmax in fasted Sprague-Dawley rat at 2 mg/kg, po; assay type: ADME, organism-based; set-up: dose 2 mg/kg, route oral; conditions: in vivo
Rattus norvegicus [7] = test: AUC (infinity) in fasted Sprague-Dawley rat at 2 mg/kg, po; assay type: ADME, organism-based, Plasma; set-up: time infinity, dose 2 mg/kg, route oral; conditions: in vivo
[8] = Bioavailability in fasted Sprague-Dawley rat at 0.5 mg/kg, iv and 2 mg/kg, po; assay type: ADME, organism-based; conditions: in vivo
[9] = Volume of distribution at steady state in fasted Sprague-Dawley rat at 0.5 mg/kg, iv and 2 mg/kg, po; assay type: ADME, organism-based; conditions: in vivo, read-out: Vdss
[10] = Aqueous solubility in fasted-state simulated intestinal fluid at pH 6.8 after 3 days by HPLC; assay type: physicochemical
[11] = Aqueous solubility in simulated gastric fluid at pH 1.2 after 3 days by HPLC; assay type: physicochemical
[12] = molecular target: T1, Transient receptor potential cation channel subfamily V member 1; test: Antagonist activity at human TRPV1 expressed in HEK293 cells assessed as inhibition of low pH-induced calcium influx; assay type: functional, cell-based
Rattus norvegicus [13] = test: Analgesic activity against carrageenan-induced thermal hyperalgesia in po dosed rat model assessed as paw withdrawal latency; assay type: functional, organism-based
Rattus norvegicus [14] = test: Analgesic activity in rat model assessed as inhibition of carrageenan-induced thermal hyperalgesia at 30 mg/kg, po administered 1 hr prior carrageenan challenge relative to control; assay type: functional, organism-based; set-up: dose 30 mg/kg
Rattus norvegicus [15] = test: Analgesic activity in rat model assessed as inhibition of carrageenan-induced thermal hyperalgesia at 1 mg/kg, po administered 1 hr prior carrageenan challenge relative to control; assay type: functional, organism-based; set-up: dose 1 mg/kg
Rattus norvegicus [16] = test: Clearance in fasted Sprague-Dawley rat at 1 mg/kg, iv and 5 mg/kg, po; assay type: ADME, organism-based; conditions: in vivo
[17] = Plasma concentration in carrageenan-induced thermal hyperalgesia rat model at 30 mg/kg, po after 5 hrs post-carrageenan injection; assay type: ADME, organism-based; set-up: dose 30 mg/kg, route oral
[18] = molecular target: T2, Transient receptor potential cation channel subfamily V member 1; test: Displacement of [3H]RTX from rat TRPV1 expressed in HEK293 cells; assay type: cell-based
Rattus norvegicus [19] = test: Bioavailability in fasted Sprague-Dawley rat at 1 mg/kg, iv and 5 mg/kg, po; assay type: ADME, organism-based; conditions: in vivo
[20] = Tmax in fasted Sprague-Dawley rat at 5 mg/kg, po; assay type: ADME, organism-based; set-up: dose 5 mg/kg, route oral; conditions: in vivo
[21] = Plasma concentration in carrageenan-induced thermal hyperalgesia rat model at 1 mg/kg, po after 5 hrs post-carrageenan injection; assay type: ADME, organism-based; set-up: dose 1 mg/kg, route oral
[22] = molecular target: T2, Transient receptor potential cation channel subfamily V member 1; test: Antagonist activity at rat TRPV1 expressed in HEK293 cells assessed as inhibition of low pH-induced calcium influx; assay type: functional, cell-based
[23] = Half life in fasted Sprague-Dawley rat at 1 mg/kg, iv and 5 mg/kg, po; assay type: ADME, organism-based; conditions: in vivo
Rattus norvegicus [24] = test: Analgesic activity in rat model assessed as inhibition of carrageenan-induced thermal hyperalgesia at 0.3 mg/kg, po administered 1 hr prior carrageenan challenge relative to control; assay type: functional, organism-based; set-up: dose 0.3 mg/kg
Rattus norvegicus [25] = organism: Rattus norvegicus; test: Suppression of KCl-induced rat bladder contraction at 100 nM; assay type: functional, tissue-based; conditions: Urinary bladder
Rattus norvegicus [26] = test: AUC (0 to infinity) in fasted Sprague-Dawley rat at 5 mg/kg, po; assay type: ADME, organism-based, Plasma; set-up: time infinity, dose 5 mg/kg, route oral; conditions: in vivo
Rattus norvegicus [27] = test: Analgesic activity in rat model assessed as maximum degree of inhibition of carrageenan-induced thermal hyperalgesia at 3 mg/kg, po administered 1 hr prior carrageenan challenge measured after 4 hrs; assay type: functional; set-up: scale not given: the % may be the effect or the level left
Rattus norvegicus [28] = test: Analgesic activity in rat model assessed as inhibition of carrageenan-induced thermal hyperalgesia at 3 mg/kg, po administered 1 hr prior carrageenan challenge relative to control; assay type: functional, organism-based; set-up: dose 3 mg/kg
[29] = Plasma concentration in carrageenan-induced thermal hyperalgesia rat model at 0.3 mg/kg, po after 5 hrs post-carrageenan injection; assay type: ADME, organism-based; set-up: dose 0.3 mg/kg, route oral
[30] = Volume of distribution at steady state in fasted Sprague-Dawley rat at 1 mg/kg, iv and 5 mg/kg, po; assay type: ADME, organism-based; conditions: in vivo, read-out: Vdss
[31] = Plasma concentration in carrageenan-induced thermal hyperalgesia rat model at 3 mg/kg, po after 5 hrs post-carrageenan injection; assay type: ADME, organism-based; set-up: dose 3 mg/kg, route oral
[32] = Cmax in fasted Sprague-Dawley rat at 5 mg/kg, po; assay type: ADME, organism-based; set-up: dose 5 mg/kg, route oral; conditions: in vivo
Rattus norvegicus [33] = test: Analgesic activity in po dosed rat model assessed as inhibition of carrageenan-induced thermal hyperalgesia administered 1 hr prior carrageenan challenge; assay type: functional
[34] = molecular target: Transient receptor potential cation channel subfamily V member 1 (Rattus norvegicus) (UniProt O35433); test: Antagonist activity at rat TRPV1 assessed as fold increase in EC50 of capsaicin-induced isometric contraction in rat bladder at 100 nM; assay type: functional
Transient receptor potential cation channel subfamily V member 1 (Rattus norvegicus), sequence (O35433 whole entry): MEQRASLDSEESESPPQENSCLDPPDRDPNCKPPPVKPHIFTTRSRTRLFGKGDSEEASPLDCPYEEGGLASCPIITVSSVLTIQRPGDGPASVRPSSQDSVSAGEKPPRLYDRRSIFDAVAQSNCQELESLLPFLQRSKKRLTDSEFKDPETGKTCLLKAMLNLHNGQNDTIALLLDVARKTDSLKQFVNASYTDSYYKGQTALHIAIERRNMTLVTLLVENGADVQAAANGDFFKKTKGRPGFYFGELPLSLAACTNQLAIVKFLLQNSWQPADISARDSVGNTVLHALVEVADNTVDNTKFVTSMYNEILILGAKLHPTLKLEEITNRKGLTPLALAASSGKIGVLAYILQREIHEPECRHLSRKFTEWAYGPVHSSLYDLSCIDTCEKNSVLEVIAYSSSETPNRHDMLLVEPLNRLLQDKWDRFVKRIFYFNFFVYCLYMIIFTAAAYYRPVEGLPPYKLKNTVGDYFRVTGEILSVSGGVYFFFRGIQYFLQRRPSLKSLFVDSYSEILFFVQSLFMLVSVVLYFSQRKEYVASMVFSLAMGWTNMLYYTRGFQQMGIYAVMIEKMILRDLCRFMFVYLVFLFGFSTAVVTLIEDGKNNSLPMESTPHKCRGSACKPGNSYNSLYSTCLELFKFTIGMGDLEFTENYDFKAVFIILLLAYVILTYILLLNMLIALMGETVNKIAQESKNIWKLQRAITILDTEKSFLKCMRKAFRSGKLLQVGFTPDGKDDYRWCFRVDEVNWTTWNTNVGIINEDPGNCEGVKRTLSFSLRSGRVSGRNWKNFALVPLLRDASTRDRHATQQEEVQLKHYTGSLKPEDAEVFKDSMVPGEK

T1 sequence (Q8NER1 whole entry): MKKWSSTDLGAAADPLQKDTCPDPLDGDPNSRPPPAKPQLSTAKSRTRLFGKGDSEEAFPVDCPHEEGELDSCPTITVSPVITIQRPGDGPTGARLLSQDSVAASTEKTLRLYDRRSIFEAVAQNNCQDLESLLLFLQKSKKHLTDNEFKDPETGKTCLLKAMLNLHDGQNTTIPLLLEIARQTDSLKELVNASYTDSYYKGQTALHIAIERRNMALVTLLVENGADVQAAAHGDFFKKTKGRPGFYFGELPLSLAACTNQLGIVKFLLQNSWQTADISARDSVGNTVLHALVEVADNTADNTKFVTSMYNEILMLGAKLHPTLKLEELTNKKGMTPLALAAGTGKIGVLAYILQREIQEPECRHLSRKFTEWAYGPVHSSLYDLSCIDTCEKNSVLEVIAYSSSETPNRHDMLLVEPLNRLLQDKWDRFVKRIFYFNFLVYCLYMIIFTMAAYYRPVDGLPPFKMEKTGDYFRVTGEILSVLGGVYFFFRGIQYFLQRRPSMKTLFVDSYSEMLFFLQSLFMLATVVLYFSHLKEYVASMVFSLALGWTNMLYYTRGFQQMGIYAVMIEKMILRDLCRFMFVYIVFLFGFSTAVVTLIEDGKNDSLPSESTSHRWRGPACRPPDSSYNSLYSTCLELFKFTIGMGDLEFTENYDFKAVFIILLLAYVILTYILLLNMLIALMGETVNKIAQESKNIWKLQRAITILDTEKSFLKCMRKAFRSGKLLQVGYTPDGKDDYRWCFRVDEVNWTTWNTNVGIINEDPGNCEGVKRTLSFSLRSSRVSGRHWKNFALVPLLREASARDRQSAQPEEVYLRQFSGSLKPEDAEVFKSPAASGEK
T2 sequence (O35433 whole entry): as the sequence (O35433 whole entry) above

SMILES: CS(=O)(=O)c1nc(Nc2ccc(C(F)(F)F)cc2)c2nc(Nc3c(Cl)cccc3Cl)sc2n1
IC50 [1]: 0.274 µM
IC50 [2]: 0.077 µM

SMILES: CS(=O)(=O)c1ccccc1Nc1nc2c(Nc3ccc(C(F)(F)F)cc3)ncnc2s1
IC50 [1]: 0.234 µM
IC50 [2]: 0.221 µM

SMILES: FC(F)(F)c1ccc(Nc2nc(-c3ccccc3)nc3sc(Nc4c(Cl)cccc4Cl)nc23)cc1
IC50 [1]: 0.539 µM
IC50 [2]: 0.104 µM

SMILES: FC(F)(F)c1ccc(Nc2ncnc3sc(Nc4ccccc4)nc23)cc1
IC50 [1]: > 5 µM

SMILES: FC(F)(F)c1ccc(Nc2nc(N3CCNCC3)nc3sc(Nc4c(Cl)cccc4Cl)nc23)cc1
IC50 [1]: > 5 µM
IC50 [2]: > 5 µM

SMILES: FC(F)(F)c1cccc(Nc2ncnc3sc(Nc4c(Cl)cccc4Cl)nc23)c1
IC50 [1]: 0.206 µM
IC50 [2]: 0.192 µM

SMILES: CSc1nc(Nc2ccc(C(F)(F)F)cc2)c2nc(Nc3c(Cl)cccc3Cl)sc2n1
IC50 [1]: 0.224 µM
IC50 [2]: 0.113 µM

SMILES: FC(F)(F)c1ccc(Nc2ncnc3nc(Nc4c(Cl)cccc4Cl)sc23)cc1
IC50 [1]: 0.68 µM
IC50 [2]: 0.864 µM

SMILES: CSc1ccc(Nc2ncnc3sc(Nc4c(Cl)cccc4Cl)nc23)cc1
IC50 [1]: 0.096 µM
IC50 [2]: 0.012 µM

SMILES: OCc1cc(Cl)c(Nc2nc3c(Nc4ccc(C(F)(F)F)cc4)ncnc3s2)c(Cl)c1
clearance [3]: 23.3 mL/min/kg
Cmax [4]: 200 nM
half-life [5]: 1.8 h
Tmax [6]: 4 h
AUC (Rattus norvegicus [7]): 638 ng·h/mL
bioavailability [8]: 45%
Vd [9]: 2.9 L/kg
IC50 [2]: 0.0005 µM

SMILES: O=C(O)c1ccc(Nc2ncnc3sc(Nc4c(Cl)cccc4Cl)nc23)cc1
IC50 [1]: > 5 µM
IC50 [2]: > 5 µM

SMILES: O=C(c1ccc(Nc2ncnc3sc(Nc4c(Cl)cccc4Cl)nc23)cc1)N1CCCC1
IC50 [1]: > 5 µM
IC50 [2]: > 5 µM

SMILES: FC(F)(F)c1ccc(Nc2ncnc3sc(Nc4c(Cl)cccc4Cl)nc23)cc1
IC50 [12]: 0.019 µM
Activity (Rattus norvegicus [13]): inactive
Activity (Rattus norvegicus [14]): Active
Activity (Rattus norvegicus [15]): Active
CL (Rattus norvegicus [16]): 10 mL/min/kg
concentration at 5 h [17]: 3050 nM
Ki [18]: 0.004 µM
F (Rattus norvegicus [19]): 43%
Tmax [20]: 2 h
concentration at 5 h [21]: 58 nM
IC50 [22]: 0.006 µM
half-life [23]: 2.2 h
Activity (Rattus norvegicus [24]): Active
Activity (Rattus norvegicus [25]): inactive
AUC (Rattus norvegicus [26]): 10000 ng·h/mL
Activity (Rattus norvegicus [27]): 57%
Activity (Rattus norvegicus [28]): Active
concentration at 5 h [29]: 10 nM
Vd [30]: 1.6 L/kg
concentration at 5 h [31]: 428 nM
solubility at 72 h [10]: 2 µg/mL (≈ 4.38 µM)
Cmax [32]: 1100 nM
solubility at 72 h [11]: ≤ 1 µg/mL
ED50 (Rattus norvegicus [33]): 0.5 mg/kg
fold change (FC) [34]: 6

SMILES: NCc1cc(Cl)c(Nc2nc3c(Nc4ccc(C(F)(F)F)cc4)ncnc3s2)c(Cl)c1
IC50 [1]: 0.125 µM
IC50 [2]: 0.054 µM

SMILES: N#Cc1cc(Cl)c(Nc2nc3c(Nc4ccc(C(F)(F)F)cc4)ncnc3s2)c(Cl)c1
IC50 [1]: 0.095 µM
IC50 [2]: 0.053 µM

SMILES: Clc1cccc(Cl)c1Nc1nc2c(Nc3ccccc3)ncnc2s1
IC50 [1]: 0.176 µM
IC50 [2]: 0.17 µM

SMILES: O=C(O)c1cc(Cl)c(Nc2nc3c(Nc4ccc(C(F)(F)F)cc4)ncnc3s2)c(Cl)c1
IC50 [1]: > 5 µM
IC50 [2]: > 5 µM

Next, values leading:

IC50 [1]: 0.051 µM
IC50 [2]: 0.014 µM
SMILES: Cc1ccccc1Nc1nc2c(Nc3ccc(C(F)(F)F)cc3)ncnc2s1

clearance [3]: 30 mL/min/kg
Cmax [4]: 70 nM
IC50 [1]: 0.039 µM
half-life [5]: 1.8 h
Tmax [6]: 2 h
AUC (Rattus norvegicus [7]): 196 ng·h/mL
bioavailability [8]: 17%
Vd [9]: 2.8 L/kg
solubility at 72 h [10]: 10 µg/mL (≈ 17.1 µM)
IC50 [2]: 0.011 µM
solubility at 72 h [11]: 116 µg/mL (≈ 198 µM)
SMILES: FC(F)(F)c1ccc(Nc2nc(NCCN3CCOCC3)nc3sc(Nc4c(Cl)cccc4Cl)nc23)cc1

IC50 [1]: 0.01 µM
IC50 [2]: 0.003 µM
SMILES: CC(C)c1ccc(Nc2ncnc3sc(Nc4c(Cl)cccc4Cl)nc23)cc1

IC50 [1]: 0.023 µM
SMILES: Cc1cccc(C)c1Nc1nc2c(Nc3ccc(C(F)(F)F)cc3)ncnc2s1

IC50 [1]: 0.012 µM
IC50 [2]: 0.036 µM
SMILES: FC(F)(F)c1ccc(Nc2nc(N3CCCC3)nc3sc(Nc4c(Cl)cccc4Cl)nc23)cc1

IC50 [1]: 0.013 µM
IC50 [2]: 0.009 µM
SMILES: CC(C)Nc1nc(Nc2ccc(C(F)(F)F)cc2)c2nc(Nc3c(Cl)cccc3Cl)sc2n1

IC50 [1]: 0.074 µM
IC50 [2]: 0.037 µM
SMILES: FC(F)(F)c1ccc(Nc2ncnc3sc(Nc4ccccc4C(F)(F)F)nc23)cc1

IC50 [1]: 0.033 µM
IC50 [2]: 0.032 µM
SMILES: Cc1ccc(Nc2ncnc3sc(Nc4c(Cl)cccc4Cl)nc23)cc1

IC50 [1]: 0.009 µM
IC50 [2]: 0.0016 µM
SMILES: Cc1cccc(Cl)c1Nc1nc2c(Nc3ccc(C(F)(F)F)cc3)ncnc2s1
